≈ marks a conversion by molar mass, not a printed value. Read-outs that look alike come from different tables or passages of the source.
Assays:
[1] = Real-time distribution in the gastrointestinal tract (fluorescent labelling, live imaging); assay type: in vivo; details: SD rats, oral
Procedure: We performed real-time distribution study to explore whether the functional materials have played their full enhancing ability in oral absorption. We used acridine orange to label SDS, fluorescein isothiocyanate isomer I to label TPGS, CS, SDS-TPGS and SDS-CS-TPGS, and rhodamine B to label ADR, respectively. […] The SDS-CS-TPGS + ADR group was administered with SDS-CS-TPGS and ADR at the same time. The animals were killed by cervical dislocation at the pre-set time points of 0.5 h, 1 h, 2 h and 3 h. Then the gastrointestinal tract was removed in time and put it into a small animal live imaging system (Lumina XR, PerkinElmer, America) for photographic observation.
The distribution of gastrointestinal segments in each group of animals at each time period was observed by in live imaging system (Figure 5A). […] In order to further understand the distribution of various materials and ADR in the gastrointestinal tract, we divided the gastrointestinal tract of SD rats into ten parts such as stomach, small intestine which divided into 8 sections on average and colon, as shown in Figure 5(B). […] For example, when SDS-CS-TPGS were taken orally with ADR, the time of 50% SDS-CS-TPGS passing part 4, part 5 and part 6 of small intestine was 0.67 ± 0.01 h, 0.98 ± 0.06 h and 1.04 ± 0.13 h, respectively, which were not much different from that of ADR, as the passing time of ADR in part 4, part 5 and part 6 was 0.65 ± 0.04 h, 1.02 ± 0.01 h and 1.03 ± 0.01 h, respectively. However, these times of other materials and ADR were different, indicating the materials and ADR could not reach the same site of gastrointestinal tract at the same time, which may limit the absorption enhancing ability of functional materials. Combining the results described above, we can conclude that materials in physical mixture may separate in intestinal, and synthesized copolymer could reduce the separation and has better ability to […] the absorption site of drug at the same time.
The passing times of 50% ADR and polymer materials passed through the fourth (T4(50)), fifth (T5(50)) and sixth (T6(50)) segments of small intestine of SD rats were shown in Table S2, and we can find the distribution of ADR and copolymer (S-C-T) were similar.

[2] = test system: ear swelling ICR mice model; experiment: Arachidonic acid ear swelling model, ear swelling rate; assay type: in vivo; details: indomethacin 10 mg/kg po; ADR injection 10 mg/kg iv; ADR 100 mg/kg po; S-C-TANs L 25, M 50, H 100 mg/kg po
Procedure: To explore whether the enhancing on bioavailability could result in enhanced therapeutic effect, we studied the anti-inflammatory efficacy of nanocrystal. The ear swelling ICR mice model was established by using arachidonic acid and the anti-inflammatory efficacy was evaluated by employing ear swelling rate of ICR mice serum levels of TNF-α, IL-6 and IL-1β, as pharmacodynamic index. In this study, fifty-six ICR mice were randomly divided into 8 groups, named control group (normal animal), model group (without drug), indomethacin group (positive drug, 10 mg/kg, po), ADR injection group (10 mg/kg, iv), ADR group (100 mg/kg, po), L-S-C-TANs group (low dose of S-C-TANs, 25 mg/kg, po), M-S-C-TANs group (middle dose of S-C-TANs, 50 mg/kg, po) and H-S-C-TANs group (high dose of S-C-TANs, 100 mg/kg, po). […] Cellular inflammatory factors, like TNF-α, IL-1β, and IL-6, were measured by Elisa Kit.
To explore whether the enhancing on bioavailability could result in enhanced therapeutic effect, we studied the anti-inflammatory efficacy of nanocrystal. The ear swelling ICR mice model was established by using arachidonic acid and the anti-inflammatory efficacy was evaluated by employing ear swelling rate of ICR mice serum levels of TNF-α, IL-6 and IL-1β, as pharmacodynamic index. […]

[3] = Saturated solubility study (shaking 24 h, HPLC); assay type: physicochemical; details: read-out: Saturation solubility
Procedure: Briefly, excess formulation powders were added into 5 mL buffers, and shaked at 37 °C for 24 h, then the undissolved drug was removed by centrifuging at 13, 000 rpm for 10 min and filtering with 0.22 μm microporous membrane. The drug concentration in the filtrate was determined by HPLC. The freshly prepared ANs, SANs, TANs and S-C-TANs were directly shaking for 24 h at 37 °C, and treated as that of andrographolide, thereafter. ADR was analyzed at 225 nm and at 35 °C using HPLC linked to Ultimate^Ⓡ XB-C18 (4.6 mm × 250 mm, 5 μm) column. The mobile phase which consisted of methanol and water (60:40, v/v) was pumped at 1 mL/min. The HPLC analysis met the methodological requirements by validating.

MDCK cells = experiment: Cytotoxicity of nanocrystals; assay type: cell-based; details: drug concentration above 100 μg/mL
[4] = Pharmacokinetic study after gavage; assay type: in vivo; details: SD rats, 50 mg/kg by gavage
Procedure: We explored oral absorption enhancing ability of andrographolide nanocrystals by operating pharmacokinetic studies on SD rat. In brief, twenty-five SD rats were randomly divided into 5 groups, and administrated ADR-water (dispersed ADR in water), ANs, SANs, TANs and S-C-TANs at 50 mg/kg by gavage (Chen et al., [2014]). After administrated for 0.083, 0.25, 0.5, 0.75, 1, 2, 4, 6, 8, 12 and 24 h, about 0.3 mL blood sample was collected by retro-orbital puncture. The plasma was centrifuged at 4,000 r/min for 10 min at 4 °C and stored at −20 °C. The andrographolide concentrations in plasma samples were detected after treatments as following: 50 μL plasma samples, 25 μL luteolin solution (internal standard 10.11 μg/mL) and 200 μL methanol solution were mixed by vortexing for 5 min. The mixed solution was subsequently centrifuged at 12,000 rpm for 10 min and the supernatant was collected and dried at room temperature under a stream of nitrogen. The residue was reconstituted with 50 μL methanol and mixed by vortexing for 3 min. after centrifuging at 12,000 rpm for 10 min, the supernatant was injected into the HPLC system for analysis. The ADR concentration in plasma samples was detected by HPLC following the conditions shown in supplementary materials, and pharmacokinetic parameters were calculated using the DAS 3.3.0 pharmacokinetics program (developed by the Clinical Trial Center of Shanghai University of Traditional Chinese Medicine, Shanghai, China).
Andrographolide was analyzed at 225 nm using HPLC linked to a Ultimate^Ⓡ XB-C18 (4.6 mm ×250 mm, 5μm) column. The mobile phase, consisting of methanol and 0.2% phosphoric acid (46:54, v/v), was pumped at 1 mL/min. The column temperature was 35℃.

[5] = Oil-water partition coefficient (Log P); assay type: physicochemical
Excerpt: Combining the saturated solubility and log P of each group (shown in Table S1, it could be seen that the greater the saturated solubility is, the greater the log P value is.

[6] = SDS-CS-TPGS and ADR administered at the same time

## CCCCCCCCCCCCOS(=O)(=O)[O-].[Na+] [SDS, Sodium dodecyl sulfate]
[1]; given alone
  T4(50), time of 50% passing the fourth segment of small intestine: 0.89 ± 0.03 h
  T5(50), time of 50% passing the fifth segment of small intestine: 1.52 ± 0.12 h
  T6(50), time of 50% passing the sixth segment of small intestine: 2.40 ± 0.02 h

## COc1ccc2c(c1)c(CC(=O)O)c(C)n2C(=O)c1ccc(Cl)cc1 [indomethacin, Indomethacin]
[2]
  anti-ear swelling efficacy, order of all groups: ADR injection group > H-S-C-TANs group > positive drug group > M-S-C-TANs group > ADR group ≈ L-S-C-TANs group

## C=C1CC[C@@H]2[C@](C)(CO)[C@H](O)CC[C@@]2(C)[C@@H]1C/C=C1/C(=O)OC[C@H]1O [ADR, andrographolide]
[3]; citrate - disodium hydrogen phosphate buffer, 37 °C, pH 4, aqueous buffer, thermodynamic from solid, pH4.0 (C-DHPB)
  solubility at 24 h: 37.68 ± 0.24 µg/mL (≈ 108 µM)
[3]; hydrochloric acid aqueous solution, 37 °C, pH 1.2, simulated gastric fluid, thermodynamic from solid, pH1.2 (HCl)
  solubility at 24 h: 38.2 ± 0.95 µg/mL (≈ 109 µM)
[3]; phosphate buffered saline, 37 °C, pH 6.8, aqueous buffer, thermodynamic from solid, pH6.8 (PBS)
  solubility at 24 h: 32.5 ± 0.42 µg/mL (≈ 92.8 µM)
[3]; purified water, 37℃
  solubility at 24 h: 40.8 ± 0.64 µg/mL (≈ 116 µM)
MDCK cells
  cytotoxicity: toxicity of ADR emerged
[4]; compared with ADR-Water
  Fr (relative bioavailability): 100%
[4]; rat, plasma, po, read-out: Fa (absolute bioavailability)
  bioavailability: 1.83%
[4]; rat, po, plasma
  AUC(0-inf): 1290 ng·h/mL
  AUC(0-t): 1290 ± 218 ng·h/mL
  Cmax: 229 ± 82 ng/mL
  Tmax: 0.717 ± 0.415 h
  half-life: 2.81 ± 0.232 h
[4]; rat, po, plasma, read-out: CLz/F (converted)
  CL/F: 661 mL/min/kg
[4]; rat, po, plasma, read-out: MRT0-t
  MRT last: 5.66 ± 1.26 h
[4]; rat, po, plasma, read-out: MRT0-∞
  MRT inf: 5.75 ± 1.26 h
[4]; rat, po, plasma, read-out: Vz/F
  Vd/F: 161 ± 31.4 L/kg
[1]; [6]
  T4(50), time of 50% passing the fourth segment of small intestine: 0.65 ± 0.04 h
  T5(50), time of 50% passing the fifth segment of small intestine: 1.02 ± 0.01 h
  T6(50), time of 50% passing the sixth segment of small intestine: 1.03 ± 0.01 h
[1]; given alone
  T4(50), time of 50% passing the fourth segment of small intestine: 0.65 ± 0.02 h
  T5(50), time of 50% passing the fifth segment of small intestine: 1.16 ± 0.10 h
  T6(50), time of 50% passing the sixth segment of small intestine: 2.08 ± 0.05 h
[5]; Water, 25℃
  logP: 1.78 ± 0.02
[5]; Water, 37℃
  logP: 1.76 ± 0.01
[5]; pH 1.2, pH1.2, 25℃
  logP: 1.85 ± 0.02
[5]; pH 1.2, pH1.2, 37℃
  logP: 1.84 ± 0.02
[5]; pH 4, pH4.0, 25℃
  logP: 1.85 ± 0.02
[5]; pH 4, pH4.0, 37℃
  logP: 1.87 ± 0.02
[5]; pH 6.8, pH6.8, 25℃
  logP: 1.88 ± 0.02
[5]; pH 6.8, pH6.8, 37℃
  logP: 1.94 ± 0.02
[2]
  anti-ear swelling efficacy, order of all groups: ADR injection group > H-S-C-TANs group > positive drug group > M-S-C-TANs group > ADR group ≈ L-S-C-TANs group

— article PMC9718561, “Multi-functional chitosan copolymer modified nanocrystals as oral andrographolide delivery systems for enhanced bioavailability and anti-inflammatory efficacy” (Drug Delivery, 2022)
